In US20100168102A9, “Amide Derivatives as Kinase Inhibitors” (Devgen NV, priority 2005, published 2010):

Key:
PKC epsilon = biological target: T1, PKC epsilon (Homo sapiens, UniProt Q02156); assay: Biochemical assay for PKC epsilon (fluorescence polarization, Protein Kinase C Assay Kit, Red); settings: compounds of Formula XIV, Table 3; read-out: IC50 μM PKCε
T1 construct: purchased Invitrogen P2282
T1 sequence (Q02156 1-737): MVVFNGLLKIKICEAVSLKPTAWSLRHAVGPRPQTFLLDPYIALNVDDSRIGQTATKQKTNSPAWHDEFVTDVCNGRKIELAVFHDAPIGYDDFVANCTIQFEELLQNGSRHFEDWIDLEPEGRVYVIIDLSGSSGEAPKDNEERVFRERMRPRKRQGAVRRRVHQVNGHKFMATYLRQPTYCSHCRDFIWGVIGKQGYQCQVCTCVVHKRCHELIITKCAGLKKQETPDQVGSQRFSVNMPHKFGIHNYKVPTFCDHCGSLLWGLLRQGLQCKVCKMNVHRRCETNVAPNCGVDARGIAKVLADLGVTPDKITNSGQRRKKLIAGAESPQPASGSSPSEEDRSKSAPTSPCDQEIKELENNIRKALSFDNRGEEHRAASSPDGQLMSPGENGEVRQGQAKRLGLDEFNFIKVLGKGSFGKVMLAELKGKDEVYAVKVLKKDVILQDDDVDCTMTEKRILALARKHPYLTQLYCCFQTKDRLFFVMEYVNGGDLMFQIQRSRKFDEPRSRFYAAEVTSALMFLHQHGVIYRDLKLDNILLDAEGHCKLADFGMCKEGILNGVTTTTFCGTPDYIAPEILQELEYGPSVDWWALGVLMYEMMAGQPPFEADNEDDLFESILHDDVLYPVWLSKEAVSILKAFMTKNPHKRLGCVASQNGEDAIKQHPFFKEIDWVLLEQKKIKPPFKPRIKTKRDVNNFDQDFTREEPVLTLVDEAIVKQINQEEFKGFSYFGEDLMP
How it was run: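 PKC epsilon at 10 ng/ml final was preincubated 30 min at room temperature with compound in HEPES pH 7.4 with DTT and Triton X-100. ATP/protein substrate was then added in buffer with MgCl2 and CaCl2 for 80 min. The reaction was stopped with EDTA, phosphorylation was detected by fluorescence polarization with rhodamine tracer and anti-phosphoserine antibody, and IC50 values came from curve fits.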

human ROCKα/ROCKII mix = biological target: T2, human ROCKα/ROCKII mix (Homo sapiens, UniProt O75116); assay: Biochemical assay for ROCK (fluorescence polarization, ROCK IMAP Kit); settings: compounds of Formula XIV, Table 3
T2 construct: purchased Upstate Biotechnology 14-451
T2 sequence (O75116 11-552 limits assumed): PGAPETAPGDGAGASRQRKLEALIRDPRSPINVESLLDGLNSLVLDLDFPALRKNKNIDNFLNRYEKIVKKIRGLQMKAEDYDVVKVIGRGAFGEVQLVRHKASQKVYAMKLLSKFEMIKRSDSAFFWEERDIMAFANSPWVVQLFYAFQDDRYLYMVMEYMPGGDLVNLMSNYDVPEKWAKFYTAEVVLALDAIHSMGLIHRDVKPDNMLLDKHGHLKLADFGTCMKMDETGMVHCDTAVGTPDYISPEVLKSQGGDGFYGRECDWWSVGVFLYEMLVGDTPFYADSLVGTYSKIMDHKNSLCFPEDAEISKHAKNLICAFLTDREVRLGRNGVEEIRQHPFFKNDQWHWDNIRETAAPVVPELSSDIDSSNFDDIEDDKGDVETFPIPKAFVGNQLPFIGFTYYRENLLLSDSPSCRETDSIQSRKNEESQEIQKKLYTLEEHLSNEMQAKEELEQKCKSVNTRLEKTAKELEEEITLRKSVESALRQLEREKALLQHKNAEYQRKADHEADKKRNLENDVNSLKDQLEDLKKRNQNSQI

Row | IC50 (PKC epsilon) [µM] | IC50 (human ROCKα/ROCKII mix) [µM] | SMILES
1 | 0.5 to 5 | 0.05 to 0.5 | NC(CC(=O)NCc1ccccc1Cl)c1ccc(C(=O)Nc2ccncc2)cc1 (stereo not shown) [Compound 246, 4-[1-Amino-2-(2-chloro-benzylcarbamoyl)-ethyl]-N-pyridin-4-yl-benzamide]
2 | 0.5 to 5 | 0.05 to 0.5 | Cc1cccc(Cl)c1CNC(=O)CC(N)c1ccc(C(=O)Nc2ccncc2)cc1 (stereo not shown) [Compound 247, 4-[1-Amino-2-(2-chloro-6-methyl-benzylcarbamoyl)-ethyl]-N-pyridin-4-yl-benzamide]
3 | 0.05 to 0.5 | 0.05 to 0.5 | NC(CC(=O)NCc1cccc(Cl)c1)c1ccc(C(=O)Nc2ccncc2)cc1 (stereo not shown) [Compound 248, 4-[1-Amino-2-(3-chloro-benzylcarbamoyl)-ethyl]-N-pyridin-4-yl-benzamide]
4 | 0.5 to 5 | 0.05 to 0.5 | Cc1ccc(CNC(=O)CC(N)c2ccc(C(=O)Nc3ccncc3)cc2)cc1Cl (stereo not shown) [Compound 249, 4-[1-Amino-2-(3-chloro-4-methyl-benzylcarbamoyl)-ethyl]-N-pyridin-4-yl-benzamide]
5 | 0.5 to 5 | 0.05 to 0.5 | NC(CC(=O)NCc1cc(Cl)cc(Cl)c1)c1ccc(C(=O)Nc2ccncc2)cc1 (stereo not shown) [Compound 250, 4-[1-Amino-2-(3,5-dichloro-benzylcarbamoyl)-ethyl]-N-pyridin-4-yl-benzamide]
6 | 0.5 to 5 | 0.05 to 0.5 | NC(CC(=O)NCc1cc(Cl)ccc1Cl)c1ccc(C(=O)Nc2ccncc2)cc1 (stereo not shown) [Compound 251, 4-[1-Amino-2-(3,6-dichloro-benzylcarbamoyl)-ethyl]-N-pyridin-4-yl-benzamide]
7 | 0.5 to 5 | 0.05 to 0.5 | NC(CC(=O)NCc1ccc(Cl)cc1Cl)c1ccc(C(=O)Nc2ccncc2)cc1 (stereo not shown) [Compound 252, 4-[1-Amino-2-(2,4-dichloro-benzylcarbamoyl)-ethyl]-N-pyridin-4-yl-benzamide]
8 | 0.05 to 0.5 | 0.05 to 0.5 | NC(CC(=O)NCc1cccc(Cl)c1Cl)c1ccc(C(=O)Nc2ccncc2)cc1 (stereo not shown) [Compound 253, 4-[1-Amino-2-(2,3-dichloro-benzylcarbamoyl)-ethyl]-N-pyridin-4-yl-benzamide]
9 | 0.5 to 5 | 0.05 to 0.5 | NC(CC(=O)NC(c1ccccc1)c1ccc(Cl)cc1)c1ccc(C(=O)Nc2ccncc2)cc1 (stereo not shown) [Compound 255, 4-(1-Amino-2-{[(4-chloro-phenyl)-phenyl-methyl]-carbamoyl}-ethyl)-N-pyridin-4-yl-benzamide]
10 | 0.5 to 5 | 0.05 to 0.5 | NC(CC(=O)NCc1ccccc1F)c1ccc(C(=O)Nc2ccncc2)cc1 (stereo not shown) [Compound 256, 4-[1-Amino-2-(2-fluoro-benzylcarbamoyl)-ethyl]-N-pyridin-4-yl-benzamide]
11 | 0.5 to 5 | 0.05 to 0.5 | NC(CC(=O)NCc1cccc(F)c1)c1ccc(C(=O)Nc2ccncc2)cc1 (stereo not shown) [Compound 257, 4-[1-Amino-2-(3-fluoro-benzylcarbamoyl)-ethyl]-N-pyridin-4-yl-benzamide]
12 | 0.05 to 0.5 | 0.05 to 0.5 | NC(CC(=O)NCc1ccc(F)cc1)c1ccc(C(=O)Nc2ccncc2)cc1 (stereo not shown) [Compound 258, 4-[1-Amino-2-(4-fluoro-benzylcarbamoyl)-ethyl]-N-pyridin-4-yl-benzamide]
13 | 0.5 to 5 | 0.05 to 0.5 | NC(CC(=O)NCc1ccccc1Br)c1ccc(C(=O)Nc2ccncc2)cc1 (stereo not shown) [Compound 259, 4-[1-Amino-2-(2-bromo-benzylcarbamoyl)-ethyl]-N-pyridin-4-yl-benzamide]
14 | 0.5 to 5 | 0.05 to 0.5 | NC(CC(=O)NCc1cccc(Br)c1)c1ccc(C(=O)Nc2ccncc2)cc1 (stereo not shown) [Compound 260, 4-[1-Amino-2-(3-bromo-benzylcarbamoyl)-ethyl]-N-pyridin-4-yl-benzamide]
15 | 0.5 to 5 | 0.05 to 0.5 | NC(CC(=O)NCc1ccc(F)cc1Cl)c1ccc(C(=O)Nc2ccncc2)cc1 (stereo not shown) [Compound 261, 4-[1-Amino-2-(2-chloro-4-fluoro-benzylcarbamoyl)-ethyl]-N-pyridin-4-yl-benzamide]
16 | 0.5 to 5 | 0.05 to 0.5 | NC(CC(=O)NCc1ccc(Br)cc1F)c1ccc(C(=O)Nc2ccncc2)cc1 (stereo not shown) [Compound 262, 4-[1-Amino-2-(4-bromo-2-fluoro-benzylcarbamoyl)-ethyl]-N-pyridin-4-yl-benzamide]

Row | IC50 (PKC epsilon) [µM] | IC50 (human ROCKα/ROCKII mix) [µM] | SMILES
17 | 0.5 to 5 | 0.05 to 0.5 | NC(CC(=O)NCc1ccccc1C(F)(F)F)c1ccc(C(=O)Nc2ccncc2)cc1 (stereo not shown) [Compound 263, 4-[1-Amino-2-(2-trifluoromethyl-benzylcarbamoyl)-ethyl]-N-pyridin-4-yl-benzamide]
18 | 0.5 to 5 | 0.05 to 0.5 | NC(CC(=O)NCc1cccc(C(F)(F)F)c1)c1ccc(C(=O)Nc2ccncc2)cc1 (stereo not shown) [Compound 264, 4-[1-Amino-2-(3-trifluoromethyl-benzylcarbamoyl)-ethyl]-N-pyridin-4-yl-benzamide]
19 | 0.5 to 5 | 0.05 to 0.5 | NC(CC(=O)NCc1ccc(C(F)(F)F)cc1)c1ccc(C(=O)Nc2ccncc2)cc1 (stereo not shown) [Compound 265, 4-[1-Amino-2-(4-trifluoromethyl-benzylcarbamoyl)-ethyl]-N-pyridin-4-yl-benzamide]
20 | 0.5 to 5 | 0.05 to 0.5 | NC(CC(=O)NCc1ccc(F)c(C(F)(F)F)c1)c1ccc(C(=O)Nc2ccncc2)cc1 (stereo not shown) [Compound 266, 4-[1-Amino-2-(4-fluoro-3-trifluoromethyl-benzylcarbamoyl)-ethyl]-N-pyridin-4-yl-benzamide]
21 | 0.5 to 5 | 0.05 to 0.5 | NC(CC(=O)NCc1ccc(C(F)(F)F)c(F)c1)c1ccc(C(=O)Nc2ccncc2)cc1 (stereo not shown) [Compound 267, 4-[1-Amino-2-(3-fluoro-4-trifluoromethyl-benzylcarbamoyl)-ethyl]-N-pyridin-4-yl-benzamide]
22 | 0.5 to 5 | 0.05 to 0.5 | NC(CC(=O)NCc1cc(C(F)(F)F)cc(C(F)(F)F)c1)c1ccc(C(=O)Nc2ccncc2)cc1 (stereo not shown) [Compound 268, 4-[1-Amino-2-(3,5-bis-trifluoromethyl-benzylcarbamoyl)-ethyl]-N-pyridin-4-yl-benzamide]
23 | 0.5 to 5 | 0.05 to 0.5 | NC(CC(=O)NCc1ccccc1OC(F)(F)F)c1ccc(C(=O)Nc2ccncc2)cc1 (stereo not shown) [Compound 269, 4-[1-Amino-2-(2-trifluoromethoxy-benzylcarbamoyl)-ethyl]-N-pyridin-4-yl-benzamide]
24 | 0.5 to 5 | 0.05 to 0.5 | NC(CC(=O)NCc1cccc(OC(F)(F)F)c1)c1ccc(C(=O)Nc2ccncc2)cc1 (stereo not shown) [Compound 270, 4-[1-Amino-2-(3-trifluoromethoxy-benzylcarbamoyl)-ethyl]-N-pyridin-4-yl-benzamide]
25 | 0.5 to 5 | 0.05 to 0.5 | NC(CC(=O)NCc1ccc(OC(F)(F)F)cc1)c1ccc(C(=O)Nc2ccncc2)cc1 (stereo not shown) [Compound 271, 4-[1-Amino-2-(4-trifluoromethoxy-benzylcarbamoyl)-ethyl]-N-pyridin-4-yl-benzamide]
26 | 0.5 to 5 | 0.05 to 0.5 | NC(CC(=O)NCc1cccc([N+](=O)[O-])c1)c1ccc(C(=O)Nc2ccncc2)cc1 (stereo not shown) [Compound 272, 4-[1-Amino-2-(3-nitro-benzylcarbamoyl)-ethyl]-N-pyridin-4-yl-benzamide]
27 | 0.5 to 5 | 0.05 to 0.5 | NC(CC(=O)NCc1ccc([N+](=O)[O-])cc1)c1ccc(C(=O)Nc2ccncc2)cc1 (stereo not shown) [Compound 273, 4-[1-Amino-2-(4-nitro-benzylcarbamoyl)-ethyl]-N-pyridin-4-yl-benzamide]
28 | 0.5 to 5 | 0.05 to 0.5 | CS(=O)(=O)c1ccc(CNC(=O)CC(N)c2ccc(C(=O)Nc3ccncc3)cc2)cc1 (stereo not shown) [Compound 275, 4-[1-Amino-2-(4-methanesulfonyl-benzylcarbamoyl)-ethyl]-N-pyridin-4-yl-benzamide]
29 | 0.5 to 5 | 0.05 to 0.5 | NC(CC(=O)NC1Cc2ccccc2C1)c1ccc(C(=O)Nc2ccncc2)cc1 (stereo not shown) [Compound 280, 4-[1-amino-2-(indan-2-ylcarbamoyl)-ethyl]-N-pyridin-4-yl-benzamide]
30 | 0.5 to 5 | 0.05 to 0.5 | CC(CNC(=O)CC(N)c1ccc(C(=O)Nc2ccncc2)cc1)c1ccccc1 (stereo not shown) [Compound 283, 4-[1-Amino-2-(2-phenyl-propyl-carbamoyl)-ethyl]-N-pyridin-4-yl-benzamide]
31 | 5 to 50 | 0.05 to 0.5 | Cc1ccc(CCNC(=O)CC(N)c2ccc(C(=O)Nc3ccncc3)cc2)cc1 (stereo not shown) [Compound 284, 4-[1-Amino-2-(2-p-tolyl-ethyl-carbamoyl)-ethyl]-N-pyridin-4-yl-benzamide]
32 | 5 to 50 | 0.05 to 0.5 | CC(C)(C)c1ccc(CCNC(=O)CC(N)c2ccc(C(=O)Nc3ccncc3)cc2)cc1 (stereo not shown) [Compound 285, 4-{1-Amino-2-[2-(4-tert-butyl-phenyl)-ethylcarbamoyl]-ethyl}-N-pyridin-4-yl-benzamide]
